{
  "source": "patent US7256180B2",
  "about": "(priority 2000, dated 2007)",
  "key": {"[1]": {"test_system": "HSV-1 (strain CI)", "type": "in vivo, mice"}, "[2]": {"test_system": "HSV-1", "type": "cell-based, Herpes Simplex Virus 1", "conditions": "BHK cells, oligonucleotide 3.0 μM"}, "[3]": {"test_system": "HSV-1 virus (strain L2)", "type": "cell-based, Herpes Simplex Virus 1", "conditions": "Vero cells, 24 hours"}},
  "note": "Like-named read-outs stand apart in the source and are kept apart here. {C11P} = undecylphosphate group; {Acr} = acridine group",
  "data": [
    {"substance": "Free Anti-HSV: CGTTCCTCCTGU, 5′ undecylphosphate and 3′ acridine modified (5' {C11P}, 3' {Acr}, sugars by position and backbone not given here)", "values": [
      {"measurement": "Animals Survived/No. of Animals in group, Exp. 1", "setting": "[1]; mouse, in vivo, iv", "value": "1/10"},
      {"measurement": "Animals Survived/No. of Animals in group, Exp. 2", "setting": "[1]; mouse, in vivo, iv", "value": "1/10"},
      {"measurement": "Animals Survived/No. of Animals in group, Exp. 3", "setting": "[1]; mouse, in vivo, iv", "value": "0/10"},
      {"measurement": "% Survival", "setting": "[1]; over Exp. 1-3", "value": 7.0, "unit": "%"},
      {"measurement": "HSV-1 Infectious Titre (CPE50/ml) (n = 7)", "setting": "[2]", "value": "50 (±14) × 10^2 CPE50/ml"},
      {"measurement": "HSV-1 Infectious Titre (CPE50/ml) (n = 7)", "setting": "[3]; oligo conc. 0.2 μM", "value": "0.9 (±0.4) × 10^5 CPE50/ml"},
      {"measurement": "HSV-1 Infectious Titre (CPE50/ml) (n = 7)", "setting": "[3]; oligo conc. 1.0 μM", "value": "2.3 (±0.7) × 10^3 CPE50/ml"},
      {"measurement": "HSV-1 Infectious Titre (CPE50/ml) (n = 7)", "setting": "[3]; oligo conc. 5.0 μM", "value": "1.6 (±0.4) × 10^2 CPE50/ml"}
    ]}
  ]
}
